Eleven compounds from ChEMBL document CHEMBL1156165, “Novel 8-(furan-2-yl)-3-substituted thiazolo [5,4-e][1,2,4] triazolo[1,5-c] pyrimidine-2(3H)-thione derivatives as potential adenosine A(2A) receptor antagonists” (Bioorg Med Chem, 2010) can be followed below.

Activity calls are given as the source filed them. No cut-off for these calls is given here.

The species named for test [1] is Homo sapiens. Nature of the test: Selectivity ratio of Ki for human adenosine A1 receptor to Ki for human adenosine A2A receptor.
For test [2], the target named is T1, Adenosine receptor A1 (Homo sapiens, UniProt P30542).
T1 sequence (P30542 whole entry): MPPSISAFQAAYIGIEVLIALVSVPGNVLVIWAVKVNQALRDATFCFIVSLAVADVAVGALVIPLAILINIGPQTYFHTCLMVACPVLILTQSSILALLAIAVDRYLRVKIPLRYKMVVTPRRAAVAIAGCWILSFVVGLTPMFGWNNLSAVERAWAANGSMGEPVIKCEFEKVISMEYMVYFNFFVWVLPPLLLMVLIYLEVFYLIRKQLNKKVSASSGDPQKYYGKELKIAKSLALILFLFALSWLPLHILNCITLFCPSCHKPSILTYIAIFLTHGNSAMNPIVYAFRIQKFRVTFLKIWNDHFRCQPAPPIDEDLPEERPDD
Briefly: biochemical.
Description: Displacement of [3H]DPCPX from human adenosine A1 receptor expressed in HEK293 cells after 60 mins by rapid filtration assay

The target in test [3] is Adenosine receptor A2a (Homo sapiens, UniProt P29274). Nature of the test: biochemical.
Sequence of Adenosine receptor A2a (P29274 whole entry): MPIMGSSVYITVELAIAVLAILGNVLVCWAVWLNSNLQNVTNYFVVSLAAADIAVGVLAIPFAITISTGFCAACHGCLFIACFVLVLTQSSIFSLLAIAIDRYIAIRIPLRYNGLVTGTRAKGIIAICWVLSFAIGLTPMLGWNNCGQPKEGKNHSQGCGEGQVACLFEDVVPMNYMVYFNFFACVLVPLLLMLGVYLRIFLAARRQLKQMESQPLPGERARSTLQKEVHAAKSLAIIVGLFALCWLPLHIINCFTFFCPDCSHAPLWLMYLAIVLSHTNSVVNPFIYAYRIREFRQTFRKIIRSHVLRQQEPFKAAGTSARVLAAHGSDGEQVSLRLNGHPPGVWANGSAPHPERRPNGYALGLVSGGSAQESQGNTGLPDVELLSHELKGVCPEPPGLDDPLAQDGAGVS
Description: Displacement of [3H]ZM241385 from human adenosine A2A receptor expressed in HEK293 cells after 60 mins by rapid filtration assay
In test [4] the test system is Mus musculus. Briefly: Inhibition of haloperidol-induced catalepsy in Swiss albino mouse at 10 mg/kg, ip administered 30 mins prior to haloperidol challenge measured after 15 to 120 mins. Details: dose 10 mg/kg. The class given is functional, organism-based.
For test [5], the system named is Mus musculus. Briefly: Inhibition of haloperidol-induced catalepsy in Swiss albino mouse at 5 mg/kg, ip administered 30 mins prior to haloperidol challenge measured after 15 to 120 mins. The class given is functional, organism-based. On the set-up: dose 5 mg/kg.
Test [6] deals with Mus musculus. Briefly: Inhibition of haloperidol-induced akinesia in Swiss albino mouse at 20 mg/kg, ip administered 30 mins prior to haloperidol challenge measured after 15 to 120 mins. Format: functional, organism-based. Details: dose 20 mg/kg.
Test [7] has as its system Mus musculus. Briefly: Inhibition of haloperidol-induced catalepsy in Swiss albino mouse at 20 mg/kg, ip administered 30 mins prior to haloperidol challenge measured after 15 to 120 mins. The class given is functional, organism-based. Details: dose 20 mg/kg.
Test [8] has as its system Mus musculus. Nature of the test: Inhibition of haloperidol-induced akinesia in Swiss albino mouse at 5 mg/kg, ip administered 30 mins prior to haloperidol challenge measured after 15 to 120 mins. Format: functional, organism-based. On the set-up: dose 5 mg/kg.
Test [9] has as its system Mus musculus. Nature of the test: Inhibition of haloperidol-induced akinesia in Swiss albino mouse at 10 mg/kg, ip administered 30 mins prior to haloperidol challenge measured after 15 to 120 mins. Details: dose 10 mg/kg. The class given is functional, organism-based.

`CCn1c(=S)sc2c1ncn1nc(-c3ccco3)nc21`: the Ratio Ki in test [1] was determined as 0.028. For the same compound, the Ki (as a rule, the equilibrium dissociation constant of an inhibitor or competing ligand from its target) is 0.096 nM in [2] and 3.56 nM in [3].

Regarding `S=c1sc2c(ncn3nc(-c4ccco4)nc23)n1-c1ccccc1I`, the Ratio Ki in test [1] is 0.571. For the same compound, the inhibition constant Ki in test [2] is 0.4 nM; in test [3], 0.7 nM.

For `S=c1sc2c(ncn3nc(-c4ccco4)nc23)n1-c1ccc(I)cc1`, the Ratio Ki in test [1] came out at 10.8. Further, the Ki is 6.13 nM in test [2] and 0.57 nM in test [3].

In the case of `S=c1sc2c(ncn3nc(-c4ccco4)nc23)n1-c1ccccc1`, in test [1], the Ratio Ki came to 46.6. The values for the inhibition constant (Ki) in [2] and in [3] were 48 nM and 1.1 nM, respectively.

For `CCCCn1c(=S)sc2c1ncn1nc(-c3ccco3)nc21`, the Ratio Ki in [1] amounted to 1290. For the same compound, the inhibition entry in test [4], in test [5], in [6], in test [7], in test [8] and in test [9] was “Active” each time. The inhibitory constant (Ki) in test [2] stood at 148 nM; in [3], 0.12 nM.

As to `S=c1sc2c(ncn3nc(-c4ccco4)nc23)n1-c1cccc(I)c1`, the Ratio Ki in test [1] came to 320. The inhibition constant Ki turned out to be 2.62 nM in test [2] and 0.0082 nM in test [3].

Consider `Fc1ccc(-n2c(=S)sc3c2ncn2nc(-c4ccco4)nc32)cc1`, for which, in test [1], the Ratio Ki amounted to 1.59. Also, the Ki was 3.21 nM in test [2] and 2.02 nM in test [3].

For `CCCn1c(=S)sc2c1ncn1nc(-c3ccco3)nc21`, in test [1], the Ratio Ki is 636. For the same compound, the inhibition entry in test [4], in test [5], in test [6], in [7], in test [8] and in test [9] was “Active” in each case. Also, the inhibition constant Ki in test [2] was 228 nM; in test [3], 0.38 nM.

In the case of `C=CCn1c(=S)sc2c1ncn1nc(-c3ccco3)nc21`, in test [1], the Ratio Ki came to 1250. For the same compound, the inhibition entry in [4], in test [5], in [6], in [7], in [8] and in test [9] was “Active” throughout. For the same compound, the inhibition constant (Ki) came to 19 nM in test [2] and 0.016 nM in test [3].

Take `S=c1sc2c(ncn3nc(-c4ccco4)nc23)n1-c1ccc(Cl)cc1`: the Ratio Ki in [1] came out at 0.197. Further, the inhibition constant (Ki) was 0.03 nM in [2] and 0.152 nM in [3].

On to `S=c1sc2c(ncn3nc(-c4ccco4)nc23)n1-c1cccc(Cl)c1`, for which the Ratio Ki in test [1] was 5. Besides, the results for the Ki in [2] and in test [3] were 0.19 nM and 0.038 nM, respectively.
